Test results: patent US10501473B2, “Fused heterocyclic ring compounds and method of treating retinal disease using same” (THE INDUSTRY & ACADEMIC COOPERATION IN CHUNGNAM NATIONAL …, priority 2014, dated 2019)
“And” between values parts separate entries of the source, which are not always exact repeats. Identical values can stand only once.

Legend:
[1] = tested on: RGC-5 (rat ganglion cell-5); test: Retinal neuron protection under necroptosis inducing (TCZ; TNFα+cycloheximide+zVAD) condition, LDH assay; format: cell-based; details: RGC-5, TCZ 15 hours, compound 20 μM, DMSO control = 100%
Description: The following experiment was performed to evaluate the retinal neuron protection effect of the compounds of the invention under necroptosis inducing condition.
The retinal ganglion cell line RGC-5 (rat ganglion cell-5) was cultured in DMEM (Dulbecco's modified Eagle's medium) supplemented with 10% FBS (fetal bovine serum) and 1% penicillin/streptomycin. The cells were distributed in a 96-well plate at the density of 8×10^3 cells/well, followed by culture in a 37° C., CO2 incubator for 12 hours. The medium supplemented with TNFα (10 ng/ml), cycloheximide (10 μg/ml), and zVAD (10 μM) (TCZ) was treated with DMSO (0.1%) alone (control) or with the compounds of the invention (20 μM), followed by additional culture in a 37° C., CO2 incubator for 15 hours to induce cell death.
The level of cell death was measured by LDH (lactate dehydrogenase, Roche) assay. The level of the control LDH under TCZ condition was regarded as 100%, and the level of LDH in the cell group cultured in normal medium (10% FBS, DMEM) for the same time was used for the measurement of the relative rate of cell death. The compounds of examples of the invention were treated to wells, each compound for three wells, and then each experiment was performed in triplicate.

[2] = tested on: dry macular degeneration rabbit model; test: Protection against retinal layer thickness reduction by instillation 2 (ONL thickness); format: in vivo; details: FIG. 8
Description: The eyeballs were extracted from the dry macular degeneration rabbit model used in Experimental Example 7, and the thickness of ONL was measured.

[3] = molecular target: T1, RIPK1 (receptor-interacting serine/threonine-protein kinase 1) (Homo sapiens (Human), UniProt Q13546); test: IC50 to RIPK1, immuno-precipitated enzyme with [32P]γ-ATP; format: biochemical; details: 10-0.05 μM, 100 μM ATP
T1 sequence (Q13546 whole entry, species assumed): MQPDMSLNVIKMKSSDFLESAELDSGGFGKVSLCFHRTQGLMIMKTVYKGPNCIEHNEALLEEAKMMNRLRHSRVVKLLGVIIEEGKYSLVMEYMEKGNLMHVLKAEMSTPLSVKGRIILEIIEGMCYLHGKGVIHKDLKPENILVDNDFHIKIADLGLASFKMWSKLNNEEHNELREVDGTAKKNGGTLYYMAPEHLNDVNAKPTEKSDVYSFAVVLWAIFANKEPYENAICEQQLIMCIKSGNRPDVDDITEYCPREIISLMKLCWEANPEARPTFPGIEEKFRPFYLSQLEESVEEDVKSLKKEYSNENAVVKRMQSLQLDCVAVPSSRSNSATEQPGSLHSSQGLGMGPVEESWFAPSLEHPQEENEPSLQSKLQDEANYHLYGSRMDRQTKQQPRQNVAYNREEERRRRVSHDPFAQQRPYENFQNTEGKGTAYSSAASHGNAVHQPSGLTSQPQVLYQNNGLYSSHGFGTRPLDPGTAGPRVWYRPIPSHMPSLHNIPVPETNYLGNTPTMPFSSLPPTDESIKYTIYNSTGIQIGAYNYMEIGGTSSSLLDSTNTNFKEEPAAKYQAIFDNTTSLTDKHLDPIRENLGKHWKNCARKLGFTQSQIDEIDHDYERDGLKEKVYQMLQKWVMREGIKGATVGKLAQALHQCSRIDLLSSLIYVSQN
Description: RIPK1 enzyme immuno-precipitated in HEK293 (Human Embryonic Kidney 293) cell lysate was used as a kinase. The experiment was performed according to the method described in Cell. 12; 137(6):1112-23(2009).
RIPK1 protein was over-expressed in HEK293 cell line, to which lysis buffer (50 mM Tris-Cl [pH 8.0], 150 mM NaCl, 1 mM EDTA, 1% NP-40, 0.4 mM phenylmethylsulfonyl fluoride (PMSF)) was added for cell lysis. Centrifugation was performed at 13,000 rpm for 10 minutes to separate the supernatant. RIPK1 monoclonal antibody (610459, BD Bioscience) and A/G agarose beads (sc-2003, Santa Cruz Biotechnology) were added thereto, followed by immuno-precipitation in a 4° C. rotator for 12 hours.
The compounds of examples of the invention were diluted at the different concentrations of 10 μM˜0.05 μM (10, 5, 1, 0.5, 0.1, 0.05 uM) and mixed with the immuno-precipitated RIPK1 enzyme, followed by reaction in a 24° C. constant-temperature water bath for 15 minutes. Additional reaction was induced for 30 minutes at 30° C. after 100 μM of ATP and 10 μCi[^32P] γ-ATP were added thereto. The reaction mixture was washed with buffer once, to which protein loading buffer was added, followed by heating at 100° C. for 3 minutes. The reaction mixture was then loaded on 8% SDS-PAGE gel. Radioactive image of the phosphorylated RIPK1 was detected with FLA-7000 (GE healthcare). The image Quant TL program was used for the quantification. Based on the results, IC50 of the compound was calculated by using sigmaplot 10.0 program.

[4] = tested on: dry macular degeneration rat model; test: Retinal cell protection by instillation, sodium iodate rat model, H&E staining; format: in vivo; details: SI ip 50 mg/kg, eye drops 50 μl twice a day, FIG. 2
Description: From 3 days before the administration of sodium iodate (SI) to the 8-week-old dry macular degeneration rat model, the compound of the invention was instillated twice a day (50 μl/each eye drop instillation) and SI (ip, 50 mg/kg) was administered once. Additionally, the compound was instillated twice a day for 7 days. 7 days later, the eyeballs were extracted, followed by H&E staining to investigate retinal cell protection effect (n=3, 6 eyes). FIG. 1 is a schematic diagram illustrating the construction of the dry macular degeneration rat model and the eye drop instillation of the compounds of the invention.
The eyeballs were extracted from the dry macular degeneration rat model constructed by the same manner as described in FIG. 1, followed by histostaining.
To measure the survival rate (%) of retinal pigment epithelial cells, the eyeballs extracted from the experimental rats were fixed in 4% glutaraldehyde solution for 4 hours and embedded in paraffin. Tissue sections were prepared in 5 μm thickness, followed by H&E (Hematoxylin and Eosin) staining. Photomicrographs were taken of 2-3 different areas within the RPE (retinal pigment epithelium) layer on 100× optical microscope (Leica), and the number of stained cells was counted. The number of RPE cells in the normal rat group was regarded as 100%, based on which the survival rate was calculated.

[5] = molecular target: T1, RIPK1 (receptor-interacting serine/threonine-protein kinase 1); test: RIPK1 inhibitory activity, autophosphorylation of immuno-precipitated RIPK1 with [32P]γ-ATP; format: biochemical; details: compound 100 μM; remaining RIPK1 phosphorylation
Outline: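 RIPK1 overexpressed in HEK293, immunoprecipitated, preincubated with compound 15 min at 24 °C in HEPES pH 7.6 kinase buffer with Mg2+/Mn2+. Autophosphorylation run 30 min at 30 °C with 100 μM ATP plus [32P]γ-ATP, resolved by SDS-PAGE and quantified by phosphorimaging.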

[6] = tested on: RGC-5 (rat ganglion cell); test: Retinal nerve protection under oxygen-glucose deprivation (OGD), LDH assay; format: cell-based; details: RGC-5, OGD 15 hours, compound 20 μM, DMSO control = 100%
Outline: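 RGC-5 cells switched to glucose-free DMEM with compound (20 μM) or 0.1% DMSO and held 15 h at 37° C under anaerobic gas (10% H2, 5% CO2, 85% N2). Cell death from released LDH (formazan, 490 nm), scaled with OGD control as 100% and normal-medium cells as 0%; triplicate wells, experiments in triplicate.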

[7] = tested on: retinal degeneration rabbit model; test: Drug efficacy by ERG (electroretinography) 1; format: in vivo; details: for response compared to normal (100%) / Drug efficacy (%): ERG; for Wave ratio / Drug efficacy (%): SI model; for Wave ratio: ERG wave A after one week, eye drops 100 μl twice a day, Comparative Example 3 oral 10 mg/rabbit once a day, Normal = 1.00
Description: The normal rabbit was anesthetized, which was adapted for 20 minutes in a dark room. Retinal potential difference was measured by ERG equipment. Electroretinography is a method to observe the response of photoreceptor cells with two light intensities. Particularly, A and B waves were measured from 100 to 10000 mcd, and the retinal potential difference measured at 3000 mcd. Drug efficacy was evaluated by observing the photoreceptor cells, for which the stronger response to wave A was selected.
Evaluation of candidate substances for dry macular degeneration was performed using a retinal degeneration rabbit model. The compounds of Comparative Examples 2 and 3 were used as comparative compounds. […] The compound of Comparative Example 3 was orally administered once a day (10 mg/rabbit, dissolved in saline).

[8] = Solubility in water of doxycycline forms; format: physicochemical
retina of rats = details: retinal detachment; cited from earlier work
[9] = tested on: dry macular degeneration pig model; test: Drug efficacy by fundoscopy; format: in vivo; details: IAA 10 mg/kg iv, 7 days after induction, FIG. 13
Description: First, to construct a dry macular degeneration pig model, 10 mg/kg of iodoacetic acid (IAA) was dissolved in PBS (phosphate buffered saline) and injected intravenously to a mini pig (Yutacan Micropig). One week after the IAA administration, retinal degeneration was confirmed by retinal fundus photography and fluorescence (Experimental eye research 2012. 97, 137-147), and a schematic diagram illustrating the eye drop instillation of the compounds is shown in FIG. 12.
The eye drop instillation of the compounds of the invention was performed from a day before the IAA administration as shown in FIG. 12. 7 days after the induction of retinal degeneration in the pig, retinal fundus photographs were taken and the results are shown in FIG. 13.

[10] = tested on: dry macular degeneration pig model; test: Drug efficacy by ERG (electroretinography) 2; format: in vivo
Description: The experiment was performed by the same manner as described in Experimental Example 10 except that a dry macular degeneration pig model was used instead of the dry macular degeneration rabbit model.

Row | SMILES | IC50 [3] [nM] | activity at 100 µM [5] [%] | Death of retinal nerve cell (%) [1] [%] | retina degeneration by histostaining [4] | Death of retinal nerve cell (%) [6] | also measured
1 | O=C(c1cc2c(-c3ccc(F)cc3)cccc2s1)N1CCCOCC1 [Example 52, (4-(4-fluorophenyl)benzo[b]thiophene-2-yl) (1,4-oxazepane-4-yl)methanone] | 8170 | 5.5 ± 4.9 | 80.8 ± 2.8 | – | 52.8 ± 4.4% | –
2 | O=C(c1cc2c(-c3ccc(F)cc3F)cccc2s1)N1CCOCC1 [Example 63, (4-(2,4-difluorophenyl)benzo[b]thiophene-2-yl)(morpholino)methanone] | 230 | 1.5 ± 0.7 | – | – | 48.3 ± 13.7% | –
3 | O=C(c1cc2c(-c3ccccc3F)cccc2s1)N1CCOCC1 [Example 30, (4-(2-fluorophenyl)benzo[b]thiophene-2-yl)(morpholino)methanone] | 102 | 0.4 ± 0.1 | – | – | 51.0 ± 5.9% | –
4 | C[C@H]1c2cccc(O)c2C(=O)C2=C(O)[C@]3(O)C(=O)C(C(N)=O)=C(O)[C@@H](N(C)C)[C@@H]3[C@@H](O)[C@@H]21 [Comparative Example3-MH, doxycycline] | – | – | – | – | – | response compared to normal (100%) ([7]; FIG. 11, listed as 3-MH): 74.1%; response compared to normal (100%) ([7]; FIG. 11, listed as Comparative Example 3-MH): 74.1%; Wave ratio [7]: 0.74; Drug efficacy (%) ([7]; Normal = 100, Veh. = 0): 46%; solubility in water ([8]; listed as MH): not dissolved in water
5 | CN1C(=O)NC(Cc2c[nH]c3c(Cl)cccc23)C1=O (stereo not shown) [Comparative Example 2, 5-((7-chloro-1H-indole-3-yl)methyl)-3-methylimidazolidine-2,4-dione, reference compound] | – | – | – | retina degeneration was not observed | 73.5% and 73.5 ± 10.3% | –
6 | C[C@H]1c2cccc(O)c2C(=O)C2=C(O)[C@]3(O)C(=O)C(C(N)=O)=C(O)[C@@H](N(C)C)[C@@H]3[C@@H](O)[C@@H]21 [Comparative Example3-HC, doxycycline] | – | – | – | – | – | retinal fundus photographs [9]: damaged areas (*) were observed; response compared to normal (100%) ([7]; FIG. 11, listed as 3-HC): 66.9%; response compared to normal (100%) ([7]; FIG. 11, listed as Comparative Example 3-HC): 66.9%; Wave ratio [7]: 0.67; Drug efficacy (%) ([7]; Normal = 100, Veh. = 0): 31%; Drug efficacy (%) ([7]; Normal = 100, Veh. = 0, listed as Comparative Example 3 (HC)): 31%; Drug efficacy (%) ([7]; Normal = 100, Veh. = 0, listed as Comparative Example 3-HC): 31%; solubility in water ([8]; listed as HC): well dissolved in water; wave A response ([10]; ERG, FIG. 14 and 15): wave A response was reduced; Wave ratio ([10]; IAA model, ERG wave A, Normal = 1.00): 0.38; Drug efficacy (%) ([10]; IAA model, ERG, Normal = 100, Veh. = 0): 18%

Further lines, with some results ahead:

Row | IC50 [3] [nM] | activity at 100 µM [5] [%] | SMILES | Death of retinal nerve cell (%) [1] [%] | retina degeneration by histostaining [4] | Death of retinal nerve cell (%) [6] | also measured
7 | 193 | 3.7 ± 2.6 | O=C(c1cc2c(-c3ccc(F)cc3)cccc2s1)N1CCOCC1 [Example 39, (4-(4-fluorophenyl)benzo[b]thiophene-2-yl)(morpholino)methanone] | 74.9 ± 9.1 | retina degeneration was not observed | 46.2 ± 0.8% | retinal layer thickness protection effect [2]: 70˜80% and 70-80%
8 | 360 | 3.5 ± 2.1 | O=C(c1cc2c(-c3ccc(F)cc3)cccc2s1)N1CCCC1 [Example 35, (4-(4-fluorophenyl)benzo[b]thiophene-2-yl)(pyrrolidine-1-yl)methanone] | 89.2 ± 8.2 | – | 90.0 ± 3.3% | –
9 | 65.6 | 4 | O=C(c1cc2c(-c3cccs3)cccc2s1)N1CCOCC1 [Example 74, morpholino(4-(thiophene-2-yl)benzo[b]thiophene-2-yl)methanone] | – | – | 51.4 ± 10.3% | –
10 | 95.5 | – | CN1C(=O)C(Cc2c[nH]c3ccccc23)NC1=S (stereo not shown) [Comparative Example 1, 5-((1H-indole-3-yl)methyl)-3-methyl-2-thioxothioxoimidazolidine-4-one, reference compound] | – | retina degeneration was not observed | 89.5% and 89.5 ± 10.5% | phosphorylation of RIPK1 in the retina (retina of rats): phosphorylation was reduced; photoreceptor degeneration (retina of rats): photoreceptor degeneration was also protected
